Measured values: patent US20110207697A1, “XANTHOHUMOL COMPOSITIONS AND METHODS FOR TREATING SKIN DISEASES OR DISORDERS” (Betal, LLC, priority 2008, published 2011)

How the values were obtained:
[1] = Lipophilic oxygen radical absorbance capacity (ORAC-L); details: lipid soluble antioxidant capacity; expressed as mmol TE/g; — = No activity detected
Description: Thus the ORAC method has become a widely used method for assessing antioxidant capacity in biological samples and foods. However, because of its inability to measure both hydrophilic and lipophilic antioxidants, the method has its limitations. An ORAC method for lipophilic antioxidants was further developed and validated using fluorescein as the fluorescent probe (Prior et al. 2003 J. Agric. Food Chem. 51: 3273-3279). […] In the present work, the ORAC value is expressed as the sum of values of both the water-soluble and fat-soluble parts. […] Both hydrophilic and lipophilic oxygen radical absorbance capacity (ORAC) assays were carried out at Brunswick Laboratory (Wareham, Mass.) based on the modified ORACfl method reported by Ou et al. (2001 J. Agric. Food Chem. 49: 4619-4626, 2002 J. Agr. Food Chem. 50: 3122-3128). Trolox, a water-soluble vitamin E analog, was used as the calibration standard. The data are expressed as mmole of Trolox equivalents per gram (mmol TE/g). […] Hydroxyl radical ORAC (HOR-AC) is expressed as mmole caffeic acid equivalent per gram (mmol CAE/g). […] The peroxyl nitrite ORAC (NORAC) result is expressed as mmol TE/g. […] Radical-scavenging activity was measured by the change in absorbance at 517 nm with the DPPH result expressed as mmol TE/g. […] The FRAP result is expressed as mmol TE/g (Ou et al. 2002b).

[2] = Singlet oxygen absorbance capacity (SOAC); details: expressed as mmol VtE/g
Description: [table] Alpha-tocopherol (vitamin E) was used as the calibration standard, and the SOAC result is expressed as mmol VtE/g. The higher the SOAC score, the higher the singlet oxygen-quenching capacity. […] Singlet oxygen has been postulated to be a highly reactive and toxic intermediate against skin. It is known that the acne-causing bacterium P. acnes naturally produces high amounts of intracellular porphyrins, mostly coproporphyrin (Ashkenazi et al. 2003). Singlet oxygen can be generated on the skin surface from P. acnes porphyrins under sunlight and induce serious skin damage ([…] et al. 1996 Biochem. Biophys. Res. Commun. 223: 578-582). Various skin disorders progress through a singlet oxygen-dependent mechanism, including acne, atopic dermatitis, and skin aging. Both hydrophilic and lipophilic oxygen radical absorbance capacity (ORAC) assays were carried out at Brunswick Laboratory (Wareham, Mass.) based on the modified ORACfl method reported by Ou et al. (2001 J. Agric. Food Chem. 49: 4619-4626, 2002 J. Agr. Food Chem. 50: 3122-3128). Trolox, a water-soluble vitamin E analog, was used as the calibration standard. The data are expressed as mmole of Trolox equivalents per gram (mmol TE/g). The acceptable precision of the ORAC assay is a 15% relative standard deviation. Caffeic acid was used as the calibration standard. Hydroxyl radical ORAC (HOR-AC) is expressed as mmole caffeic acid equivalent per gram (mmol CAE/g). Trolox was used as the calibration standard. The peroxyl nitrite ORAC (NORAC) result is expressed as mmol TE/g. Alpha-tocopherol (vitamin E) was used as the calibration standard, and the singlet oxygen absorbance capacity (SOAC) result is expressed as mmole a-tocopherol equivalent (mmol VtE) per gram (Aubry et al. 1989). […] Radical-scavenging activity was measured by the change in absorbance at 517 nm with the DPPH result expressed as mmol TE/g. […] The FRAP result is expressed as mmol TE/g (Ou et al. 2002b). Superoxide dismutase (SOD) was used as a calibration standard; the SOD result is expressed as kilo unit SOD equivalent (kunitSODeq) per gram.

[3] = ORAC-Total (ORAClipo + ORAChydro); details: ORAClipo + ORAChydro
Description: An ORAC method for lipophilic antioxidants was further developed and validated using fluorescein as the fluorescent probe (Prior et al. 2003 J. Agric. Food Chem. 51: 3273-3279). This method has the advantage that similar assay conditions and standards can be used for both hydrophilic and lipophilic antioxidant components, such that the two values can be added together to obtain a total antioxidant capacity. In the present work, the ORAC value is expressed as the sum of values of both the water-soluble and fat-soluble parts. Green tea catechins (Polyphenon 60) were used as the control with the highest ORAC value among edible plants. Vitamin C and vitamin E were used as controls for water- and fat-soluble molecules, respectively. […] The SOAC scores are not included in this figure; ORAC values used are the sum of lipophilic and hydrophilic results. For each assay category, scaling was made logarithmic so that the plot on the chart resembles the associated rating. […] The larger the spatial area, the higher the overall antioxidative capacity. […] Both hydrophilic and lipophilic oxygen radical absorbance capacity (ORAC) assays were carried out at Brunswick Laboratory (Wareham, Mass.) based on the modified ORACfl method reported by Ou et al. (2001 J. Agric. Food Chem. 49: 4619-4626, 2002 J. Agr. Food Chem. 50: 3122-3128). Trolox, a water-soluble vitamin E analog, was used as the calibration standard. The data are expressed as mmole of Trolox equivalents per gram (mmol TE/g). The acceptable precision of the ORAC assay is a 15% relative standard deviation. Caffeic acid was used as the calibration standard. Hydroxyl radical ORAC (HOR-AC) is expressed as mmole caffeic acid equivalent per gram (mmol CAE/g). Trolox was used as the calibration standard. The peroxyl nitrite ORAC (NORAC) result is expressed as mmol TE/g. Alpha-tocopherol (vitamin E) was used as the calibration standard, and the singlet oxygen absorbance capacity (SOAC) result is expressed as mmole a-tocopherol equivalent (mmol VtE) per gram (Aubry et al. 1989). The abbreviation for the 1,1-diphenyl-2-picrylhydrazyl radical is DPPH. Radical-scavenging activity was measured by the change in absorbance at 517 nm with the DPPH result expressed as mmol TE/g. Similarly, FRAP is an abbreviation for the ferric reducing antioxidative power method, which utilizes chemical conversion of the yellow Fe 3+-2,4,6-tripyridyl s-triazine (TPTZ) complex to the blue Fe 2+-TPTZ complex by electron donation under acidic conditions (Okada and Okada 1998 J. Agric. Food Chem. 46: 401-406). The FRAP result is expressed as mmol TE/g (Ou et al. 2002b). Superoxide dismutase (SOD) was used as a calibration standard; the SOD result is expressed as kilo unit SOD equivalent (kunitSODeq) per gram.

Structure (SMILES)	ORAC-L (Trolox equivalent) [1]	SOAC (Vitamin E equivalent) [2]	ORAC-Total (Trolox equivalent) [3]
Cc1c(C)c2c(c(C)c1O)CC[C@@](C)(CCC[C@H](C)CCC[C@H](C)CCCC(C)C)O2 [Vitamin E, Alpha-tocopherol, reference compound]	0.75 Trolox equivalent	1.0 Vitamin E equivalent	0.75 Trolox equivalent
O=C1O[C@H]([C@@H](O)CO)C(O)=C1O [Vitamin C, reference compound]			1.4 Trolox equivalent
